Reference: US11292788B2, “IL-17 and IFN-gamma inhibition for the treatment of autoimmune diseases and chronic inflammation” (Immunic AG, priority 2017, dated 2022)
pIC50: −log10 of the molar value. Where two headings read alike, the source gives them in different places.

Experiments:
IL-17A = experiment: Cytokine assay: IL-17A production by human PBMC stimulated with PHA; type: cell-based; details: Homo sapiens, PBMC, IC50 class, read-out: IL-17A Inhib.
Summary of the method: (§1)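 Compounds were titrated semilogarithmically for IC50, or screened at 10, 1, 0.1 and 0.01 μM, on healthy-donor PBMC stimulated for 48 h with 2 μg/ml PHA at 1×10^5 cells/well. Cytokines in culture supernatants were then quantified by ELISA or Luminex bead assay.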

IL-17F = experiment: Cytokine assay: IL-17F production by human PBMC stimulated with PHA; type: cell-based; details: Homo sapiens, PBMC, IC50 class, read-out: IL-17F Inhib.
Summary of the method: as §1

INF-γ = experiment: Cytokine assay: INF-γ production by human PBMC stimulated with PHA; type: cell-based; details: Homo sapiens, PBMC, IC50 class, read-out: IFN-gamma Inhib.
Summary of the method: as §1

[1] = Microsomal stability: incubation with human liver microsomes, residual parent compound by HPLC-MS/MS; type: in vitro ADME; details: up to 60 min, read-out: t1/2 hLM
Method: Metabolic stability of compounds of the present invention was determined by incubation with human liver microsomes and subsequent determination of residual amount of the respective compound (“parent compound”) by HPLC-MS/MS.
In order to achieve this, in a final reaction volume of 1000 μl, each compound was incubated at a final concentration of 1 μM with 0.5 mg/ml human liver microsomes (HLM Pool 50 Donors, 20 mg/ml, BD Gentest, #452156, LotNr 88114) in 0.1 M Potassium phosphate buffer at pH 7.4, with a cofactor in form of a NADPH regenerating system (Promega, #V9510) according to the manufacturers' specifications. The final DMSO concentration in each sample was 0.4%. The incubation was performed at 37° C. under shaking conditions (Thermomixer, 1400 rpm) for different time intervals up to 60 min. To stop the reaction, for each time point 200 μl of the reaction were taken out and 200 μl ice-cold acetonitrile was added. Then, the samples were centrifuged (4° C., 14000*g for 15 min). The supernatant was analyzed for residual parent compound concentration and scanned for metabolites using HPLC-MS/MS. By using optimized MS methods for each compound, the peak area under curve for the compound specific signal is determined. The change of the peak areas over the assay time of 60 min resemble the remaining parent compound in % of T0. By these points, a balancing line was set. The half-time, as well as the clearance, can then be calculated on the basis of the slope.

[2] = pH 7.4, human liver microsomes, 1 μM compound, 0.5 mg/ml HLM, 37° C.
[3] = human liver microsomes 0.5 mg/ml, compound 1 μM, pH 7.4, 37° C.

Structure (SMILES)	pIC50 (IL-17A)	pIC50 (IL-17F)	pIC50 (INF-γ)	half-life at 1 μM [1, 2]	half-life at 1 μM [1, 3]
C[C@]1(O)C[C@@H](n2ncc(-c3onc(-c4c(F)cccc4Cl)c3-c3cnccn3)c2C(F)(F)F)C1 [Example 100, 3-{4-[3-(2-chloro-6-fluorophenyl)-4-(pyrazin-2-yl)-1,2-oxazol-5-yl]-5-(trifluoromethyl)-1H-pyrazol-1-yl}-1-methylcyclobutan-1-ol]	6.30 to 7.30	> 7.30	> 7.30	> 100 min	–
COc1cccc(-c2noc(-c3cnn(CCC(C)(C)O)c3C)c2-c2ncccn2)c1Cl [Example 124, 4-{4-[3-(2-chloro-3-methoxyphenyl)-4-(pyrimidin-2-yl)-1,2-oxazol-5-yl]-5-methyl-1H-pyrazol-1-yl}-2-methylbutan-2-ol]	> 7.30	> 7.30	> 7.30	> 100 min	–
C[C@]1(O)C[C@@H](n2ncc(-c3onc(-c4c(F)cccc4Cl)c3-c3ncccn3)c2C(F)(F)F)C1 [Example 98, 3-(4-(3-(2-chloro-6-fluorophenyl)-4-(pyrimidin-2-yl)isoxazol-5-yl)-5-(trifluoromethyl)-1H-pyrazol-1-yl)-1-methylcyclobutanol]	> 7.30	> 7.30	> 7.30	> 100 min	–
CCC(O)Cn1ncc(-c2onc(-c3c(F)cccc3Cl)c2-c2nccs2)c1C(F)(F)F (racemic) [Example 6, 1-{4-[3-(2-chloro-6-fluorophenyl)-4-(1,3-thiazol-2-yl)-1,2-oxazol-5-yl]-5-(trifluoromethyl)-1H-pyrazol-1-yl}butan-2-ol]	> 7.30	> 7.30	> 7.30	–	10 to 40 min
COCc1c(-c2cccc(OCCN(C)C)c2Cl)noc1-c1cnn([C@H]2C[C@](C)(O)C2)c1C(F)(F)F [Example 153, 3-[4-(3-{2-chloro-3-[2-(dimethylamino)ethoxy]phenyl}-4-(methoxymethyl)-1,2-oxazol-5-yl)-5-(trifluoromethyl)-1H-pyrazol-1-yl]-1-methylcyclobutan-1-ol]	≤ 5.30	5.30 to 6.30	5.30 to 6.30	> 100 min	–
COc1cccc(-c2noc(-c3cnn(CCC(C)(C)O)c3C(F)(F)F)c2-c2ncccn2)c1Cl [Example 121, 4-{4-[3-(2-chloro-3-methoxyphenyl)-4-(pyrimidin-2-yl)-1,2-oxazol-5-yl]-5-(trifluoromethyl)-1H-pyrazol-1-yl}-2-methylbutan-2-ol]	> 7.30	6.30 to 7.30	> 7.30	> 100 min	–
C[C@]1(O)C[C@@H](n2ncc(-c3onc(-c4cccc(OCCN5CCOCC5)c4Cl)c3COC3CC3)c2C(F)(F)F)C1 [Example 92, 3-(4-(3-(2-chloro-3-(2-morpholinoethoxy)phenyl)-4-(cyclopropoxymethyl)isoxazol-5-yl)-5-(trifluoromethyl)-1H-pyrazol-1-yl)-1-methylcyclobutan-1-ol]	> 7.30	> 7.30	> 7.30	2 to 9.99 min	–
Cc1c(-c2onc(-c3c(F)cccc3Cl)c2C(=O)OC2CC2)cnn1[C@H]1C[C@@](C)(O)C1 [Example 61, cyclopropyl 3-(2-chloro-6-fluorophenyl)-5-{5-methyl-1-[3-hydroxy-3-methylcyclobutyl]-1H-pyrazol-4-yl}-1,2-oxazole-4-carboxylate]	> 7.30	> 7.30	> 7.30	–	40 to 100 min
C[C@@H](O)Cn1ncc(-c2onc(-c3c(F)cccc3Cl)c2COC2CC2)c1C(F)(F)F [Example 85, (2R)-1-(4-(3-(2-chloro-6-fluorophenyl)-4-(cyclopropoxymethyl)isoxazol-5-yl)-5-(trifluoromethyl)-1H-pyrazol-1-yl)propan-2-ol]	> 7.30	> 7.30	> 7.30	–	10 to 40 min
CC(C)(O)CCn1ncc(-c2onc(-c3cccc(OCCN4CCCC4)c3Cl)c2-c2ncccn2)c1C(F)(F)F [Example 135, 4-[4-(3-{2-chloro-3-[2-(pyrrolidin-1-yl)ethoxy]phenyl}-4-(pyrimidin-2-yl)-1,2-oxazol-5-yl)-5-(trifluoromethyl)-1H-pyrazol-1-yl]-2-methylbutan-2-ol]	6.30 to 7.30	6.30 to 7.30	> 7.30	40 to 100 min	–
COCc1c(-c2c(F)cccc2Cl)noc1-c1cnn([C@H]2C[C@@](C)(O)C2)c1C(F)(F)F [Example 69, 3-(4-(3-(2-chloro-6-fluorophenyl)-4-(methoxymethyl)isoxazol-5-yl)-5-(trifluoromethyl)-1H-pyrazol-1-yl)-1-methylcyclobutan-1-ol]	6.30 to 7.30	6.30 to 7.30	> 7.30	–	> 100 min
CC(C)(O)CCn1ncc(-c2onc(-c3cccc(OCCN4CC5(COC5)C4)c3Cl)c2-c2ncccn2)c1C(F)(F)F [Example 139, 4-(4-{3-[2-chloro-3-(2-{2-oxa-6-azaspiro[3.3]heptan-6-yl}ethoxy)phenyl]-4-(pyrimidin-2-yl)-1,2-oxazol-5-yl}-5-(trifluoromethyl)-1H-pyrazol-1-yl)-2-methylbutan-2-ol]	> 7.30	> 7.30	6.30 to 7.30	10 to 40 min	–
CC(C)(O)Cn1ncc(-c2onc(-c3c(F)cccc3Cl)c2-c2ncccn2)c1C(F)(F)F [Example 118, 1-{4-[3-(2-chloro-6-fluorophenyl)-4-(pyrimidin-2-yl)-1,2-oxazol-5-yl]-5-(trifluoromethyl)-1H-pyrazol-1-yl}-2-methylpropan-2-ol]	> 7.30	> 7.30	> 7.30	> 100 min	–
CC(C)(O)CCn1ncc(-c2onc(-c3cccc(OCCCN4CCS(=O)(=O)CC4)c3Cl)c2-c2ncccn2)c1C(F)(F)F [Example 141, 4-[3-(2-chloro-3-{5-[1-(3-hydroxy-3-methylbutyl)-5-(trifluoromethyl)-1H-pyrazol-4-yl]-4-(pyrimidin-2-yl)-1,2-oxazol-3-yl}phenoxy)propyl]-thiomorpholine-1,1-dione]	> 7.30	> 7.30	> 7.30	2 to 9.99 min	–
COc1cccc(-c2noc(-c3cnn([C@H]4C[C@@](C)(O)C4)c3C(F)(F)F)c2-c2ncccn2)c1Cl [Example 103, 3-{4-[3-(2-chloro-3-methoxyphenyl)-4-(pyrimidin-2-yl)-1,2-oxazol-5-yl]-5-(trifluoromethyl)-1H-pyrazol-1-yl}-1-methylcyclobutan-1-ol]	> 7.30	> 7.30	> 7.30	> 100 min	–
COC(=O)c1c(-c2cccc(OCCN3CCOCC3)c2Cl)noc1-c1cnn(C[C@H](C)O)c1C(F)(F)F [Example 148, methyl 3-{2-chloro-3-[2-(morpholin-4-yl)ethoxy]phenyl}-5-{1-[(2S)-2-hydroxypropyl]-5-(trifluoromethyl)-1H-pyrazol-4-yl}-1,2-oxazole-4-carboxylate]	> 7.30	> 7.30	> 7.30	2 to 9.99 min	–
CC(C)(O)Cn1ncc(-c2onc(-c3c(F)cccc3Cl)c2CO)c1C(F)(F)F [Example 63, 1-(4-(3-(2-chloro-6-fluorophenyl)-4-(hydroxymethyl)isoxazol-5-yl)-5-(trifluoromethyl)-1H-pyrazol-1-yl)-2-methylpropan-2-ol]	≤ 5.30	≤ 5.30	≤ 5.30	–	–
Cc1c(-c2onc(-c3ccccc3Cl)c2COC2CC2)cnn1[C@H]1C[C@](C)(O)C1 [Example 81, 3-{4-[3-(2-chlorophenyl)-4-(cyclopropoxymethyl)-1,2-oxazol-5-yl]-5-methyl-1H-pyrazol-1-yl}-1-methylcyclobutan-1-ol]	5.30 to 6.30	5.30 to 6.30	6.30 to 7.30	–	–
C[C@@H](O)Cn1ncc(-c2onc(-c3cccc(C(=O)NC4CCC4)c3)c2-c2ccncn2)c1C(F)(F)F [Example 166, (R)—N-cyclobutyl-3-(5-(1-(2-hydroxypropyl)-5-(trifluoromethyl)-1H-pyrazol-4-yl)-4-(pyrimidin-4-yl)isoxazol-3-yl)benzamide]	5.30 to 6.30	≤ 5.30	5.30 to 6.30	–	–
COCC(=O)c1c(-c2c(F)cccc2Cl)noc1-c1cnn(C[C@@H](C)O)c1C(F)(F)F [Example 40, 1-[3-(2-chloro-6-fluorophenyl)-5-{1-[(2R)-2-hydroxypropyl]-5-(trifluoromethyl)-1H-pyrazol-4-yl}-1,2-oxazol-4-yl]-2-methoxyethan-1-one]	5.30 to 6.30	5.30 to 6.30	5.30 to 6.30	–	–
